Measurements published in patent publication EP3521435A1, “A HIGH STRINGENCY SELECTION SYSTEM FOR PROTEIN EXPRESSION IN PROLINE-AUXOTROPHIC CELLS” (Bayer AG, priority 2018, dated 2019).

Test system: CHO-K1 cells
Assay: Batch fermentation in shake flasks of human IgG1 expressing stable cell populations (Poros A-HPLC titer, viable cell density, viability)
Assay type: cell-based, Chinese hamster
Conditions: pJF1576
Description: To efficiently test the impact of different procedures on improving selection stringency, experimental testing in stable cell populations was performed. As test molecules, enhanced green fluorescent protein (GFP) as well as a human IgG1 were chosen. CHO-K1 cells adapted to growth in suspension in defined medium were obtained from SAFC and cultivated in EX-CELL CD CHO Fusion medium (SAFC 14365C). Custom-made EX-CELL CD CHO Fusion medium without L-Proline (Pro) and without L-Ornithine (Orn) ("proline-free medium") was obtained from SAFC. The expression vector system was based on modified versions of "CET 1019 AS-puro-SceI" and "CET 1019 AD-puro-SceI" for GFP and human IgG1, respectively, from Merck-Millipore, containing the Puromycin selection marker (Puromycin N-acetyl-transferase) known to exert a high selection stringency. To minimize variations in cell populations derived from using different transfections or different vectors, the first series of experiments were conducted using vectors into which a P5CS expression cassette was cloned upstream of a UCOE element, in addition to the Puromycin selection marker present downstream of a gene of interest. This way, it was possible to pool different transfections using the same vector to obtain a common starting point, and split the mixture according to different selection conditions, minimizing any variations that are not due to selection conditions themselves. Expression of long and short isoform of murine P5CS (Protein: Delta-1-pyrroline-5-carboxylate synthase; Gene: Aldh18a1; UniProtKB accession number: Q9Z110-1 & Q9Z110-2) was driven by a SV40 promoter. A SV40 polyadenylation sequence was used at the 3' end of the gene. More details can be found in Table 1. Typically, CHO cells were cultivated in EX-CELL CD CHO Fusion medium containing 6 mM GlutaMAX (Thermo Fisher, 35050-38) ("CD-Fusion medium") at 37 °C with 5% CO2. Cells were grown to logarithmic phase under shaking conditions for transfections. 1e7 cells/cuvette were transfected using nucleofection (Amaxa Nucleofector II, following the manufacturer's recommendations) with 5 µg of linearized DNA. After transfection, cells were taken up in 1 ml medium and transferred into 1 well of a 6 well microtiter plate (MTP) already containing 1 ml medium. The cells were incubated for 24 h without shaking, after which 9 ml medium were added and cells were washed (either in standard or proline-free medium). Multiple transfections were pooled, if applicable. Cells were adjusted to 2e5 viable cells/ml and 10 ml were transferred to T-25 flasks. Reference cell populations were selected using 10 µg/ml Puromycin in CD-Fusion medium. For P5CS-based selection, EX-CELL CD CHO Fusion medium (custom-made, SAFC) containing 6 mM GlutaMAX without proline and without ornithine was used ("proline-free" or "CD-Fusion w/o Pro" medium), with or without additional selection pressure.
Cell viability of the different populations was monitored over time. As soon as cell populations appeared to recover from selection pressure, cells were transferred to Shake Flask or TubeSpins for expansion in suspension under shaking conditions. Subsequently, stable cell populations transfected with IgG were seeded at 2e5 viable cells/ml for batch fermentation without selection pressure (i.e. standard CD-Fusion medium containing proline and no other selective agents). The cells were cultivated for 5-10 days, viable cell densities and productivity were monitored over time. IgG titers were determined using Poros A-HPLC method. Typically, final batch titers were recorded at a time point at which majority of cultures had around 70% viability. Stable cell populations transfected with GFP vector were subjected to analysis by flow cytometry using Guava easyCyte 8HT Benchtop Flow Cytometer (Millipore). 250 µl of cell culture were transferred to 96 MTP and washed with PBS. Dead cells were excluded from analysis using propidium iodide (PI). […]

[1] = Day 2 after inoculation, selected in CD-Fusion w/o Pro + 0.05 mM DHP, non-selecting conditions
[2] = Day 2 after inoculation, selected in CD-Fusion w/o Pro + 0.1 mM DHP, non-selecting conditions
[3] = Day 2 after inoculation, selected in CD-Fusion w/o Pro + 0.2 mM DHP, non-selecting conditions
[4] = Day 2 after inoculation, selected in CD-Fusion w/o Pro + 0.4 mM DHP, non-selecting conditions
[5] = Day 3 after inoculation, selected in CD-Fusion w/o Pro + 0.05 mM DHP, selective conditions
[6] = Day 3 after inoculation, selected in CD-Fusion w/o Pro + 0.1 mM DHP, selective conditions
[7] = Day 3 after inoculation, selected in CD-Fusion w/o Pro + 0.2 mM DHP, selective conditions
[8] = Day 3 after inoculation, selected in CD-Fusion w/o Pro + 0.4 mM DHP, selective conditions
[9] = Day 4 after inoculation, selected in CD-Fusion w/o Pro + 0.05 mM DHP, non-selecting conditions
[10] = Day 4 after inoculation, selected in CD-Fusion w/o Pro + 0.1 mM DHP, non-selecting conditions
[11] = Day 4 after inoculation, selected in CD-Fusion w/o Pro + 0.2 mM DHP, non-selecting conditions
[12] = Day 4 after inoculation, selected in CD-Fusion w/o Pro + 0.4 mM DHP, non-selecting conditions
[13] = Day 5 after inoculation, selected in CD-Fusion w/o Pro + 0.05 mM DHP, selective conditions
[14] = Day 5 after inoculation, selected in CD-Fusion w/o Pro + 0.1 mM DHP, selective conditions
[15] = Day 5 after inoculation, selected in CD-Fusion w/o Pro + 0.2 mM DHP, selective conditions
[16] = Day 5 after inoculation, selected in CD-Fusion w/o Pro + 0.4 mM DHP, selective conditions
[17] = Day 7 after inoculation, selected in CD-Fusion w/o Pro + 0.05 mM DHP, non-selecting conditions
[18] = Day 7 after inoculation, selected in CD-Fusion w/o Pro + 0.05 mM DHP, selective conditions

O=C(O)[C@@H]1C=CCN1 [DHP, 3,4-Dehydro-L-Proline]
titer improvements (0.2 mM or 0.4 mM DHP as additional selection additives, human IgG1, non-selecting batch, #1 - #3 vs #6 & #7): 2-3 fold
titer improvements as compared to Puromycin-based selections (DHP as additional selection agent in initial selections, human IgG1, batch under selective conditions): 2-3 fold
Viability profile (Day 0 after inoculation, selected in CD-Fusion w/o Pro + 0.05 mM DHP, non-selecting conditions): 99.4%
Viability profile (Day 0 after inoculation, selected in CD-Fusion w/o Pro + 0.05 mM DHP, selective conditions): 98.4%
Viability profile (Day 0 after inoculation, selected in CD-Fusion w/o Pro + 0.1 mM DHP, non-selecting conditions): 99.0%
Viability profile (Day 0 after inoculation, selected in CD-Fusion w/o Pro + 0.1 mM DHP, selective conditions): 97.5%
Viability profile (Day 0 after inoculation, selected in CD-Fusion w/o Pro + 0.2 mM DHP, non-selecting conditions): 98.6%
Viability profile (Day 0 after inoculation, selected in CD-Fusion w/o Pro + 0.2 mM DHP, selective conditions): 98.2%
Viability profile (Day 0 after inoculation, selected in CD-Fusion w/o Pro + 0.4 mM DHP, non-selecting conditions): 96.3%
Viability profile (Day 0 after inoculation, selected in CD-Fusion w/o Pro + 0.4 mM DHP, selective conditions): 99.7%
Productivity profile (Day 2 after inoculation, human IgG1, selected in CD-Fusion w/o Pro + 0.05 mM DHP, non-selecting conditions): 9.8 mg/L
Productivity profile (Day 2 after inoculation, human IgG1, selected in CD-Fusion w/o Pro + 0.05 mM DHP, selective conditions): 47.1 mg/L
Productivity profile (Day 2 after inoculation, human IgG1, selected in CD-Fusion w/o Pro + 0.1 mM DHP, non-selecting conditions): 11.0 mg/L
Productivity profile (Day 2 after inoculation, human IgG1, selected in CD-Fusion w/o Pro + 0.1 mM DHP, selective conditions): 37.5 mg/L
Productivity profile (Day 2 after inoculation, human IgG1, selected in CD-Fusion w/o Pro + 0.2 mM DHP, non-selecting conditions): 11.3 mg/L
Productivity profile (Day 2 after inoculation, human IgG1, selected in CD-Fusion w/o Pro + 0.2 mM DHP, selective conditions): 34.4 mg/L
Productivity profile (Day 2 after inoculation, human IgG1, selected in CD-Fusion w/o Pro + 0.4 mM DHP, non-selecting conditions): 11.3 mg/L
Productivity profile (Day 2 after inoculation, human IgG1, selected in CD-Fusion w/o Pro + 0.4 mM DHP, selective conditions): 39.4 mg/L
Viability profile [1]: 98.9%
Viable cell density profile [1]: 6,1E+05 VCD/ml
Viability profile [2]: 99.3%
Viable cell density profile [2]: 7,9E+05 VCD/ml
Viability profile [3]: 99.2%
Viable cell density profile [3]: 6,4E+05 VCD/ml
Viability profile [4]: 99.3%
Viable cell density profile [4]: 8,0E+05 VCD/ml
Viability profile [5]: 99.3%
Viable cell density profile [5]: 5.6E+06 VCD/ml
Viability profile [6]: 99.4%
Viable cell density profile [6]: 7.4E+06 VCD/ml
Viability profile [7]: 99.1%
Viable cell density profile [7]: 2.4E+06 VCD/ml
Viability profile [8]: 99.3%
Viable cell density profile [8]: 5.3E+06 VCD/ml
Productivity profile (Day 4 after inoculation, human IgG1, selected in CD-Fusion w/o Pro + 0.05 mM DHP, non-selecting conditions): 24.2 mg/L
Productivity profile (Day 4 after inoculation, human IgG1, selected in CD-Fusion w/o Pro + 0.05 mM DHP, selective conditions): 114.8 mg/L
Productivity profile (Day 4 after inoculation, human IgG1, selected in CD-Fusion w/o Pro + 0.1 mM DHP, non-selecting conditions): 31.7 mg/L
Productivity profile (Day 4 after inoculation, human IgG1, selected in CD-Fusion w/o Pro + 0.1 mM DHP, selective conditions): 83.8 mg/L
Productivity profile (Day 4 after inoculation, human IgG1, selected in CD-Fusion w/o Pro + 0.2 mM DHP, non-selecting conditions): 34.6 mg/L
Productivity profile (Day 4 after inoculation, human IgG1, selected in CD-Fusion w/o Pro + 0.2 mM DHP, selective conditions): 104.8 mg/L
Productivity profile (Day 4 after inoculation, human IgG1, selected in CD-Fusion w/o Pro + 0.4 mM DHP, non-selecting conditions): 41.0 mg/L
Productivity profile (Day 4 after inoculation, human IgG1, selected in CD-Fusion w/o Pro + 0.4 mM DHP, selective conditions): 105.5 mg/L
Viability profile [9]: 99.8%
Viable cell density profile [9]: 5,3E+06 VCD/ml
Viability profile [10]: 99.7%
Viable cell density profile [10]: 6,5E+06 VCD/ml
Viability profile [11]: 99.5%
Viable cell density profile [11]: 5,2E+06 VCD/ml
Viability profile [12]: 99.6%
Viable cell density profile [12]: 6,1E+06 VCD/ml
Viability profile [13]: 96.4%
Viable cell density profile [13]: 9.5E+06 VCD/ml
Viability profile [14]: 97.5%
Viable cell density profile [14]: 1.2E+07 VCD/ml
Viability profile [15]: 98.9%
Viable cell density profile [15]: 6.9E+06 VCD/ml
Viability profile [16]: 96.1%
Viable cell density profile [16]: 1.1E+07 VCD/ml
Productivity profile (Day 7 after inoculation, human IgG1, selected in CD-Fusion w/o Pro + 0.05 mM DHP, non-selecting conditions): 48.6 mg/L
Productivity profile (Day 7 after inoculation, human IgG1, selected in CD-Fusion w/o Pro + 0.05 mM DHP, selective conditions): 166.2 mg/L
Productivity profile (Day 7 after inoculation, human IgG1, selected in CD-Fusion w/o Pro + 0.1 mM DHP, non-selecting conditions): 104.4 mg/L
Productivity profile (Day 7 after inoculation, human IgG1, selected in CD-Fusion w/o Pro + 0.1 mM DHP, selective conditions): 125.8 mg/L
Productivity profile (Day 7 after inoculation, human IgG1, selected in CD-Fusion w/o Pro + 0.2 mM DHP, non-selecting conditions): 87.4 mg/L
Productivity profile (Day 7 after inoculation, human IgG1, selected in CD-Fusion w/o Pro + 0.2 mM DHP, selective conditions): 179.7 mg/L
Productivity profile (Day 7 after inoculation, human IgG1, selected in CD-Fusion w/o Pro + 0.4 mM DHP, non-selecting conditions): 116.4 mg/L
Productivity profile (Day 7 after inoculation, human IgG1, selected in CD-Fusion w/o Pro + 0.4 mM DHP, selective conditions): 133.4 mg/L
Viability profile [17]: 98.6%
Viable cell density profile [17]: 1,0E+07 VCD/ml
Viability profile [18]: 45.3%
Viable cell density profile [18]: 4.6E+06 VCD/ml
